From US12404304B1, “Telomerase reverse transcriptase (TERT) expression enhancing compounds and methods for using the same” (Sierra Sciences, LLC, priority 2007, dated 2025)

test system: viable cells in culture; assay: Cell viability assay (CellTiter-Glo Luminescent Cell Viability Assay, ATP quantitation, percent of vehicle control)

Row | SMILES | Average Cell Viability after 24 Hours (% DMSO)
1 | CCC(=O)NC(c1ccc(N(C)C)cc1)c1ccc2cccnc2c1O (stereo not shown) [compound 1001] | 44.55 % DMSO
2 | Oc1c(CN2CCN(c3cccc(Cl)c3)CC2)cc(Br)c2cccnc12 [compound 1002] | 57.70 % DMSO
3 | CN1CCN(Cc2cc(COCc3ccccc3)c3cccnc3c2O)CC1 [compound 1003] | 73.53 % DMSO
4 | Oc1c(C(Nc2ccccn2)c2ccc(OC3CCCC3)cc2)ccc2cccnc12 (stereo not shown) [compound 1004] | 54.71 % DMSO
5 | COc1cc(C(Nc2ccccn2)c2ccc3cccnc3c2O)cc(Br)c1OC (stereo not shown) [compound 1005] | 64.80 % DMSO
6 | Oc1c(C(Nc2ccccn2)c2cccc(Cl)c2Cl)ccc2cccnc12 (stereo not shown) [compound 1006] | 69.78 % DMSO
7 | Oc1c(C(Nc2ccccn2)c2ccccc2Br)ccc2cccnc12 (stereo not shown) [compound 1007] | 68.00 % DMSO
8 | COC(=O)c1ccc(C(Nc2cc(C)ccn2)c2ccc3ccc(C)nc3c2O)cc1 (stereo not shown) [compound 1008] | 67.58 % DMSO
9 | Oc1c(C(Nc2ccccn2)c2c(Cl)cccc2Cl)ccc2cccnc12 (stereo not shown) [compound 1009] | 68.59 % DMSO
10 | CCN(CC)c1ccc(C(NC(=O)C(C)C)c2cc(Cl)c3cccnc3c2O)cc1 (stereo not shown) [compound 1011] | 64.50 % DMSO
11 | COc1ccc(C(=O)NC(c2ccco2)c2cc(Cl)c3cccnc3c2O)cc1 (stereo not shown) [compound 1012] | 60.73 % DMSO
12 | COc1cccc(C(=O)NC(c2ccc(OC)c(OC)c2)c2cc(Cl)c3cccnc3c2O)c1 (stereo not shown) [compound 1013] | 74.96 % DMSO
13 | COc1ccc(C(=O)NC(c2ccc(Cl)cc2)c2cc(Cl)c3cccnc3c2O)cc1 (stereo not shown) [compound 1014] | 28.33 % DMSO
14 | O=C(COc1ccccc1)NC(/C=C/c1ccccc1)c1cc(Cl)c2cccnc2c1O (stereo not shown) [compound 1015] | 74.68 % DMSO
15 | COc1ccc(C(=O)NC(/C=C/c2ccccc2)c2cc(Cl)c3cccnc3c2O)cc1 (stereo not shown) [compound 1016] | 42.84 % DMSO
16 | COc1cccc(C(=O)NC(/C=C/c2ccccc2)c2cc(Cl)c3cccnc3c2O)c1 (stereo not shown) [compound 1017] | 75.48 % DMSO
17 | Oc1c(I)cc(I)c2cccnc12 [compound 1018] | 56.90 % DMSO
18 | Oc1c(Br)cc(Br)c2cccnc12 [compound 1019] | 35.74 % DMSO
19 | Oc1c(Cl)cc(Cl)c2cccnc12 [compound 1020] | 25.10 % DMSO
20 | CC(=O)NC(c1ccc(Br)cc1)c1ccc2cccnc2c1O (stereo not shown) [compound 1022] | 63.83 % DMSO
21 | COc1ccc(C(NC(C)=O)c2ccc3cccnc3c2O)cc1OC (stereo not shown) [compound 1023] | 75.33 % DMSO
22 | CC(=O)NC(c1ccc(C)cc1)c1ccc2cccnc2c1O (stereo not shown) [compound 1024] | 95.15 % DMSO
23 | CC(=O)NC(c1ccccc1Cl)c1ccc2cccnc2c1O (stereo not shown) [compound 1025] | 93.50 % DMSO
24 | CCCCC(=O)NC(c1ccccc1OC)c1cc([N+](=O)[O-])c2cccnc2c1O (stereo not shown) [compound 1027] | 62.71 % DMSO

Row | SMILES | Average Cell Viability after 24 Hours (% DMSO)
25 | O=[N+]([O-])c1cc(CN2CCN(c3ccccc3)CC2)c(O)c2ncccc12 [compound 1029] | 32.00 % DMSO
26 | CC(=O)NC(c1ccc(C(C)C)cc1)c1ccc2cccnc2c1O (stereo not shown) [compound 1030] | 73.78 % DMSO
27 | CCCCC(=O)NC(c1ccccc1Cl)c1cc([N+](=O)[O-])c2cccnc2c1O (stereo not shown) [compound 1031] | 76.88 % DMSO
28 | CCC(=O)NC(c1ccc(OC)c(OC)c1)c1cc(Cl)c2cccnc2c1O (stereo not shown) [compound 1032] | 75.67 % DMSO
29 | CCOc1cc(C(NC(C)=O)c2cc([N+](=O)[O-])c3cccnc3c2O)ccc1O (stereo not shown) [compound 1033] | 84.43 % DMSO
30 | CC(=O)NC(c1ccco1)c1cc([N+](=O)[O-])c2cccnc2c1O (stereo not shown) [compound 1034] | 83.39 % DMSO
31 | CCC(=O)NC(/C=C/c1ccccc1)c1cc([N+](=O)[O-])c2cccnc2c1O (stereo not shown) [compound 1035] | 62.45 % DMSO
32 | CCCC(=O)NC(c1ccc(O)c(OCC)c1)c1cc([N+](=O)[O-])c2cccnc2c1O (stereo not shown) [compound 1036] | 73.28 % DMSO
33 | CC(=O)NC(c1ccc(Cl)cc1)c1cc([N+](=O)[O-])c2cccnc2c1O (stereo not shown) [compound 1037] | 67.96 % DMSO
34 | CCC(=O)NC(c1ccco1)c1cc(Cl)c2cccnc2c1O (stereo not shown) [compound 1039] | 72.76 % DMSO
35 | CCCCC(=O)NC(c1ccc(OC)cc1)c1cc([N+](=O)[O-])c2cccnc2c1O (stereo not shown) [compound 1040] | 61.11 % DMSO
36 | CCC(=O)NC(c1ccccc1Cl)c1cc(Cl)c2cccnc2c1O (stereo not shown) [compound 1041] | 72.82 % DMSO
37 | CC(C)C(=O)NC(c1ccc(Cl)cc1Cl)c1ccc2cccnc2c1O (stereo not shown) [compound 1042] | 55.51 % DMSO
38 | CCC(=O)NC(c1ccccc1OC)c1cc(Cl)c2cccnc2c1O (stereo not shown) [compound 1043] | 47.47 % DMSO
39 | CCCC(=O)NC(c1ccc(Cl)cc1)c1cc([N+](=O)[O-])c2cccnc2c1O (stereo not shown) [compound 1044] | 85.35 % DMSO
40 | O=C(NC(c1ccc(Cl)cc1)c1ccc2cccnc2c1O)C1CCCCC1 (stereo not shown) [compound 1045] | 60.30 % DMSO
41 | CCCCC(=O)NC(c1ccc2c(c1)OCO2)c1cc([N+](=O)[O-])c2cccnc2c1O (stereo not shown) [compound 1046] | 78.00 % DMSO
42 | Cc1ccc(C(NC(=O)C2CCCCC2)c2ccc3cccnc3c2O)cc1 (stereo not shown) [compound 1047] | 69.78 % DMSO
43 | CCCC(=O)NC(c1cccs1)c1cc([N+](=O)[O-])c2cccnc2c1O (stereo not shown) [compound 1048] | 70.37 % DMSO
44 | CCC(=O)NC(c1ccc(C)cc1)c1cc([N+](=O)[O-])c2cccnc2c1O (stereo not shown) [compound 1049] | 65.63 % DMSO
45 | CC(=O)NC(c1ccccc1)c1cc([N+](=O)[O-])c2cccnc2c1O (stereo not shown) [compound 1050] | 62.77 % DMSO
46 | CCC(=O)NC(c1ccccc1OC)c1cc([N+](=O)[O-])c2cccnc2c1O (stereo not shown) [compound 1051] | 65.27 % DMSO
47 | CC(=O)NC(c1cccs1)c1cc(Cl)c2cccnc2c1O (stereo not shown) [compound 1052] | 60.80 % DMSO
48 | CCCCC(=O)NC(c1ccc(OC)c(OC)c1)c1cc([N+](=O)[O-])c2cccnc2c1O (stereo not shown) [compound 1053] | 59.77 % DMSO

Row | SMILES | Average Cell Viability after 24 Hours (% DMSO)
49 | CCCCC(=O)NC(c1ccc(Cl)cc1)c1cc([N+](=O)[O-])c2cccnc2c1O (stereo not shown) [compound 1054] | 46.45 % DMSO
50 | CCCCC(=O)NC(c1ccco1)c1cc([N+](=O)[O-])c2cccnc2c1O (stereo not shown) [compound 1055] | 57.43 % DMSO
51 | CCCC(=O)NC(c1ccc(C(C)C)cc1)c1cc([N+](=O)[O-])c2cccnc2c1O (stereo not shown) [compound 1056] | 65.75 % DMSO
52 | CC(=O)NC(c1ccc(C(C)C)cc1)c1cc(Cl)c2cccnc2c1O (stereo not shown) [compound 1057] | 50.02 % DMSO
53 | CC(=O)NC(c1cccs1)c1ccc2cccnc2c1O (stereo not shown) [compound 1058] | 69.11 % DMSO
54 | CCN(CC)c1ccc(C(NC(=O)C(C)C)c2ccc3cccnc3c2O)cc1 (stereo not shown) [compound 1060] | 63.44 % DMSO
55 | CCCCC(=O)NC(c1ccc(OC)cc1)c1cc(Cl)c2cccnc2c1O (stereo not shown) [compound 1061] | 62.27 % DMSO
56 | CC(C)C(=O)NC(c1ccc(C(C)C)cc1)c1cc(Cl)c2cccnc2c1O (stereo not shown) [compound 1062] | 60.77 % DMSO
57 | CCCCC(=O)NC(c1cccs1)c1cc([N+](=O)[O-])c2cccnc2c1O (stereo not shown) [compound 1063] | 85.12 % DMSO
58 | CC(C)C(=O)NC(c1ccc2c(c1)OCO2)c1cc([N+](=O)[O-])c2cccnc2c1O (stereo not shown) [compound 1064] | 67.37 % DMSO
59 | O=C(CCc1ccccc1)NC(c1ccc2c(c1)OCO2)c1ccc2cccnc2c1O (stereo not shown) [compound 1065] | 61.72 % DMSO
60 | CCCC(=O)NC(c1ccc(N(C)C)cc1)c1cc(Cl)c2cccnc2c1O (stereo not shown) [compound 1066] | 72.46 % DMSO
61 | CCCCC(=O)NC(c1cccs1)c1cc(Cl)c2cccnc2c1O (stereo not shown) [compound 1067] | 49.62 % DMSO
62 | O=C(NC(c1ccc2c(c1)OCO2)c1cc([N+](=O)[O-])c2cccnc2c1O)C1CCCCC1 (stereo not shown) [compound 1068] | 61.20 % DMSO
63 | CCCCC(=O)NC(/C=C/c1ccccc1)c1cc([N+](=O)[O-])c2cccnc2c1O (stereo not shown) [compound 1069] | 80.34 % DMSO
64 | CCCC(=O)NC(c1ccc(N(CC)CC)cc1)c1cc(Cl)c2cccnc2c1O (stereo not shown) [compound 1070] | 69.71 % DMSO
65 | CC(C)C(=O)NC(c1ccc(C(C)C)cc1)c1cc([N+](=O)[O-])c2cccnc2c1O (stereo not shown) [compound 1071] | 81.62 % DMSO
66 | COc1ccc(C(NC(=O)C2CCCCC2)c2cc([N+](=O)[O-])c3cccnc3c2O)cc1OC (stereo not shown) [compound 1072] | 78.35 % DMSO
67 | COc1ccc(C(NC(=O)C(C)C)c2cc([N+](=O)[O-])c3cccnc3c2O)cc1 (stereo not shown) [compound 1073] | 80.10 % DMSO
68 | CCC(=O)NC(c1ccccc1Cl)c1cc([N+](=O)[O-])c2cccnc2c1O (stereo not shown) [compound 1074] | 75.55 % DMSO
69 | CCCC(=O)NC(c1ccco1)c1cc(Cl)c2cccnc2c1O (stereo not shown) [compound 1077] | 38.99 % DMSO
70 | Cc1ccc2ccc(C(Nc3ccccn3)c3cccc([N+](=O)[O-])c3)c(O)c2n1 (stereo not shown) [compound 1078] | 67.66 % DMSO
